For 29 molecules, EC30 results are on record in patent US10758534B2 (Vertex Pharmaceuticals Incorporated, priority 2014, dated 2020).

The target in this assay is T1, F508del (Homo sapiens, UniProt P13569, DEL508-508).
T1 construct: expressed in transfected cells
Briefly: Protocol 1: membrane potential optical assay (FLIPR III, voltage sensing dye), identification of potentiator compounds. Particulars: Table 3, compounds of Table 1. Type of assay: cell-based. Summed up: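 Read-out: change in voltage-sensing dye fluorescence (FLIPR III) as a measure of F508del conductance. Temperature-corrected (27° C, 24 hrs) NIH 3T3 cells expressing F508del are pretreated with potentiators, dye-loaded, then stimulated with forskolin under a chloride ion gradient using chloride-free gluconate bath.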

T1 sequence (P13569 with tags, fused parts or gaps DEL508-508): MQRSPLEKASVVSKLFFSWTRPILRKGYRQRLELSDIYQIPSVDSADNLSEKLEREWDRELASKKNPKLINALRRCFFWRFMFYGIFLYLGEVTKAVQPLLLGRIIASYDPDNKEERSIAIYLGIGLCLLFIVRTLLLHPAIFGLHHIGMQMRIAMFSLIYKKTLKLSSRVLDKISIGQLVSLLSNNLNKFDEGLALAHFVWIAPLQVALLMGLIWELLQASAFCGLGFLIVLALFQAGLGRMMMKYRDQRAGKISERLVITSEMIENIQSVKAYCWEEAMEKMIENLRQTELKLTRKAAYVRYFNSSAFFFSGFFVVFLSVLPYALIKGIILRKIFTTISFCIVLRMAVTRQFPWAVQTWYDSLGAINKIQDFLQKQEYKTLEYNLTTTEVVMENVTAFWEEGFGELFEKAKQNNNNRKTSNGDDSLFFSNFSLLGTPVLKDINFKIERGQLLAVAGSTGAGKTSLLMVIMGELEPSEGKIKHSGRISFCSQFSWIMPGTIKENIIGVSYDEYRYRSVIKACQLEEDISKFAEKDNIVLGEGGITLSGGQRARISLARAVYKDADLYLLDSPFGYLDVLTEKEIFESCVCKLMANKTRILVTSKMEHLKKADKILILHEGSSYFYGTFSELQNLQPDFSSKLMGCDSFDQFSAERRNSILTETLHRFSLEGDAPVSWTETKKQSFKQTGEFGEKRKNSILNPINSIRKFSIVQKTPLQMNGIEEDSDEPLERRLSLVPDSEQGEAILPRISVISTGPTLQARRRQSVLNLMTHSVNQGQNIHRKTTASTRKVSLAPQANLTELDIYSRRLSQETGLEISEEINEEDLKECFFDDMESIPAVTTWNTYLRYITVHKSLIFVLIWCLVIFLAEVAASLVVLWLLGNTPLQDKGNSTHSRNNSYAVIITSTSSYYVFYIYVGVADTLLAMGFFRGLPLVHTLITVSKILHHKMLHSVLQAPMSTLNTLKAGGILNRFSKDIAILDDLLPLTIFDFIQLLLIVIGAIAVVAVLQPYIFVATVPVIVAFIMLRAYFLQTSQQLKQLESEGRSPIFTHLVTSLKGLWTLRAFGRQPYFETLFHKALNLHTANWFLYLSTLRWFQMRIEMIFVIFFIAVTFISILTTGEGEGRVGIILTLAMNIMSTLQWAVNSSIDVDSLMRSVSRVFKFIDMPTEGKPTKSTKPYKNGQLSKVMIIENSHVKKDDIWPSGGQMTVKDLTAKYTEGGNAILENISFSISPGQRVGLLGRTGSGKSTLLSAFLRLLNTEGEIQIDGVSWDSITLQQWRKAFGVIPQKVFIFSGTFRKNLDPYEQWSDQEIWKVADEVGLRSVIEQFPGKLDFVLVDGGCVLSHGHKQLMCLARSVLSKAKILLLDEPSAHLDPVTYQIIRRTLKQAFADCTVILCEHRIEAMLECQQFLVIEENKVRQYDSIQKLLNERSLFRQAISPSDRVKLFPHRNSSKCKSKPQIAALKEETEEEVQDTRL

Take `C[C@@H]1CN(c2nc(-c3cccc(F)c3)ccc2C(=O)NS(=O)(=O)c2ccc[nH]c2=O)C(C)(C)C1` [Compound 1925, 6-(3-fluorophenyl)-N-[(2-oxo-1H-pyridin-3-yl)sulfonyl]-2-[(4S)-2,2,4-trimethylpyrrolidin-1-yl]pyridine-3-carboxamide]: the EC30 result was “+++ (“+++” means <3 uM)”.

Regarding `C[C@@H]1CN(c2nc(C(C)(C)C)c(C(O)C(O)C(C)(C)C)cc2C(=O)NS(=O)(=O)c2cccc(N)n2)C(C)(C)C1` (some centres unmarked) [Compound 1883], the EC30 entry was “+++ (“+++” means <3 uM)”. With `CC(C)COc1cc(F)cc(-c2ccc(C(=O)NS(=O)(=O)c3cccc(N)n3)c(N3CCC3C)n2)c1` (centres unmarked) [Compound 1840, N-[(6-amino-2-pyridyl)sulfonyl]-6-(3-fluoro-5-isobutoxy-phenyl)-2-(2-methylazetidin-1-yl)pyridine-3-carboxamide], the EC30 entry was “+++ (“+++” means <3 uM)”. Regarding `Cc1ccc(-c2ccc(C(=O)NS(=O)(=O)c3cccc(N)n3)c(Oc3ccc(C)cc3C)n2)cc1` [Compound 1015, N-[(6-amino-2-pyridyl)sulfonyl]-2-(2,4-dimethylphenoxy)-6-(p-tolyl)pyridine-3-carboxamide], the EC30 result is on record as “+++ (“+++” means <3 uM)”. Consider `Cc1cc(C)c(Oc2ncc(CCc3ccccc3)cc2C(=O)NS(=O)(=O)c2cccc(N)n2)c(C)c1` [Compound 1253, N-[(6-amino-2-pyridyl)sulfonyl]-5-phenethyl-2-(2,4,6-trimethylphenoxy)pyridine-3-carboxamide], for which the EC30 result is “++ (“++” means between 3 uM and 10 uM)”. The entry for `CC(C)COc1cc(F)cc(-c2ccc(C(=O)NS(=O)(=O)c3cccc(N)n3)c(C3=CCC(C(F)(F)F)CC3)n2)c1` (centres unmarked) [Compound 1667, N-[(6-amino-2-pyridyl)sulfonyl]-6-(3-fluoro-5-isobutoxy-phenyl)-2-[4-(trifluoromethyl)cyclohexen-1-yl]pyridine-3-carboxamide] is “++ (“++” means between 3 uM and 10 uM)”. Turning to `COc1ncc(-c2ccc(C(=O)NS(=O)(=O)c3nccnc3N)c(Oc3c(C)cc(C)cc3C)n2)cc1C` [Compound 1249, N-(3-aminopyrazin-2-yl)sulfonyl-6-(6-methoxy-5-methyl-3-pyridyl)-2-(2,4,6-trimethylphenoxy)pyridine-3-carboxamide], the EC30 entry is “+++ (“+++” means <3 uM)”. As for `CC1CN(c2ncccc2C(=O)NS(=O)(=O)c2cccc(OCCc3ccc(F)cc3)n2)C(C)(C)C1` (centres unmarked) [Compound 1704, N—[[6-[2-(4-fluorophenyl)ethoxy]-2-pyridyl]sulfonyl]-2-(2,2,4-trimethylpyrrolidin-1-yl)pyridine-3-carboxamide], the EC30 result is “+++ (“+++” means <3 uM)”. To `COc1ncccc1S(=O)(=O)NC(=O)C1Cc2ccccc2CCN1Cc1c(C)cc(C)cc1C` (centres unmarked) [Compound 876, N-[(2-methoxy-3-pyridyl)sulfonyl]-3-[(2,4,6-trimethylphenyl)methyl]-1,2,4,5-tetrahydro-3-benzazepine-4-carboxamide] belongs “+++ (“+++” means <3 uM)”. Regarding `CC1CN(c2ncccc2C(=O)NS(=O)(=O)c2cccc(OCc3ccsc3)n2)C(C)(C)C1` (centres unmarked) [Compound 1992, N—[[6-(3-thienylmethoxy)-2-pyridyl]sulfonyl]-2-(2,2,4-trimethylpyrrolidin-1-yl)pyridine-3-carboxamide], the EC30 result is reported as “+++ (“+++” means <3 uM)”. On to `CC(C)COc1cc(F)cc(-c2ccc(C(=O)NS(=O)(=O)N3CCCC(C)(NC(=O)OC(C)(C)C)C3)c(N3CC(C)CC3(C)C)n2)c1` (centres unmarked) [Compound 1520, tert-butyl N—[1-[[6-(3-fluoro-5-isobutoxy-phenyl)-2-(2,2,4-trimethylpyrrolidin-1-yl)pyridine-3-carbonyl]sulfamoyl]-3-methyl-3-piperidyl]carbamate], for which the EC30 entry was “+++ (“+++” means <3 uM)”. The entry for `C[C@@H]1CN(c2nc(-c3ccccc3)ccc2C(=O)NS(=O)(=O)c2cccnc2N)C(C)(C)C1` [Compound 1958, N-[(2-amino-3-pyridyl)sulfonyl]-6-phenyl-2-[(4S)-2,2,4-trimethylpyrrolidin-1-yl]pyridine-3-carboxamide] is “+++ (“+++” means <3 uM)”; for `COc1ccccc1S(=O)(=O)NC(=O)c1ccc(C(C)(C)C)nc1-c1ccc(C)cc1` [Compound 1124, 6-tert-butyl-N-(2-methoxyphenyl)sulfonyl-2-(p-tolyl)pyridine-3-carboxamide] it is “+++ (“+++” means <3 uM)”. As for `CCC(Oc1nc(-c2cc(F)cc(OCC(C)C)c2)ccc1C(=O)NS(=O)(=O)c1cccc(N)n1)c1ccccc1` (centres unmarked) [Compound 1068, N-[(6-amino-2-pyridyl)sulfonyl]-6-(3-fluoro-5-isobutoxy-phenyl)-2-(1-phenylpropoxy)pyridine-3-carboxamide], the EC30 entry is reported as “+++ (“+++” means <3 uM)”. Regarding `CC(C)COc1cc(F)cc(-c2ccc(C(=O)NS(=O)(=O)c3cccc(N)n3)c(OCC3CCCO3)n2)c1` (centres unmarked) [Compound 1661, N-[(6-amino-2-pyridyl)sulfonyl]-6-(3-fluoro-5-isobutoxy-phenyl)-2-(tetrahydrofuran-2-ylmethoxy)pyridine-3-carboxamide], the EC30 entry was “+++ (“+++” means <3 uM)”. For `CCOc1nc(-c2ccc(C(=O)NS(=O)(=O)c3cccc(N)n3)c(N3CC(C)CC3(C)C)n2)ccc1C` (centres unmarked) [Compound 1363, N-[(6-amino-2-pyridyl)sulfonyl]-6-(6-ethoxy-5-methyl-2-pyridyl)-2-(2,2,4-trimethylpyrrolidin-1-yl)pyridine-3-carboxamide], the EC30 entry is “+++ (“+++” means <3 uM)”.

In the case of `CC(C)COc1cc(F)cc(-c2ccc(C(=O)NS(=O)(=O)c3ccn[nH]3)c(N3CCC(C)C3(C)C)n2)c1` (centres unmarked) [Compound 997, 6-(3-fluoro-5-isobutoxy-phenyl)-N-(1H-pyrazol-5-ylsulfonyl)-2-(2,2,3-trimethylpyrrolidin-1-yl)pyridine-3-carboxamide], the EC30 entry is “++ (“++” means between 3 uM and 10 uM)”. For the molecule `CCOc1cccc2c1CN(Cc1ccc(F)cc1)C2(C)C(=O)NS(=O)(=O)c1cccc(F)n1` (centres unmarked) [Compound 1583, 4-ethoxy-2-[(4-fluorophenyl)methyl]-N-[(6-fluoro-2-pyridyl)sulfonyl]-1-methyl-isoindoline-1-carboxamide], the EC30 entry is “++ (“++” means between 3 uM and 10 uM)”. Turning to `CC1CCN(c2nc(C(C)(C)C)ccc2C(=O)NS(=O)(=O)c2ccc(N)cc2)CC1` [Compound 1037, N-(4-aminophenyl)sulfonyl-6-tert-butyl-2-(4-methyl-1-piperidyl)pyridine-3-carboxamide], the EC30 result is “++ (“++” means between 3 uM and 10 uM)”.

`CC(C)COc1cc(F)cc(-c2ccc(C(=O)NS(=O)(=O)c3cccc(N)n3)c(OC(C)c3ccccc3)n2)c1` (centres unmarked) [Compound 874, N-[(6-amino-2-pyridyl)sulfonyl]-6-(3-fluoro-5-isobutoxy-phenyl)-2-(1-phenylethoxy)pyridine-3-carboxamide]: the EC30 result is “+++ (“+++” means <3 uM)”. On to `C=C1CCN(c2nc(-c3cc(F)cc(OCC(C)C)c3)ccc2C(=O)NS(=O)(=O)c2cccc(N)n2)CC1` [Compound 1162, N-[(6-amino-2-pyridyl)sulfonyl]-6-(3-fluoro-5-isobutoxy-phenyl)-2-(4-methylene-1-piperidyl)pyridine-3-carboxamide], for which the EC30 result is recorded as “+++ (“+++” means <3 uM)”. The entry for `COC1CC=C(c2cnc(N3CC(C)CC3(C)C)c(C(=O)NS(=O)(=O)c3cccc(N)n3)c2)CC1` (centres unmarked) [Compound 1920, N-[(6-amino-2-pyridyl)sulfonyl]-5-(4-methoxycyclohexen-1-yl)-2-(2,2,4-trimethylpyrrolidin-1-yl)pyridine-3-carboxamide] is “++ (“++” means between 3 uM and 10 uM)”.

For the molecule `Cc1ccccc1C1CCCCCN1c1ncccc1C(=O)NS(=O)(=O)c1cccc(N)n1` (centres unmarked) [Compound 1772, N-[(6-amino-2-pyridyl)sulfonyl]-2-[2-(o-tolyl)azepan-1-yl]pyridine-3-carboxamide], the EC30 entry was “++ (“++” means between 3 uM and 10 uM)”. Consider `Cc1cc(C)c(Oc2nc(C3=CCN(C(=O)OC(C)C)CC3)ccc2C(=O)NS(=O)(=O)c2cccc(N)n2)c(C)c1` [Compound 1366, isopropyl 4-[5-[(6-amino-2-pyridyl)sulfonylcarbamoyl]-6-(2,4,6-trimethylphenoxy)-2-pyridyl]-3,6-dihydro-2H-pyridine-1-carboxylate], for which the EC30 result is “+++ (“+++” means <3 uM)”. As to `CC(C)COc1cc(F)cc(-c2ccc(C(=O)NS(=O)(=O)c3cccc(N)n3)c(OC3CCCC3)n2)c1` [Compound 1451, N-[(6-amino-2-pyridyl)sulfonyl]-2-(cyclopentoxy)-6-(3-fluoro-5-isobutoxy-phenyl)pyridine-3-carboxamide], the EC30 entry is reported as “+++ (“+++” means <3 uM)”.

For `COC1CCN(c2nc(-c3cc(F)cc(OCC(C)C)c3)ccc2C(=O)NS(=O)(=O)c2ccn[nH]2)CC1` [Compound 1245, 6-(3-fluoro-5-isobutoxy-phenyl)-2-(4-methoxy-1-piperidyl)-N-(1H-pyrazol-5-ylsulfonyl)pyridine-3-carboxamide], the EC30 result is reported as “+ (“+” means greater than 10 uM)”. With `Cc1cc(C)c(Oc2nc(C(C)(C)C)ccc2C(=O)NS(=O)(=O)c2ccnn2C)c(C)c1` [Compound 911, 6-tert-butyl-N-(2-methylpyrazol-3-yl)sulfonyl-2-(2,4,6-trimethylphenoxy)pyridine-3-carboxamide], the EC30 result is recorded as “+++ (“+++” means <3 uM)”. Take `CCOc1cccc2c1CN(Cc1c(C)cc(C)cc1C)C2(C)C(=O)NS(=O)(=O)c1cccc(F)c1OC` (centres unmarked) [Compound 1403, 4-ethoxy-N-(3-fluoro-2-methoxy-phenyl)sulfonyl-1-methyl-2-[(2,4,6-trimethylphenyl)methyl]isoindoline-1-carboxamide]: the EC30 result is “+++ (“+++” means <3 uM)”.

For `CC(C)(C)c1ccc(C(=O)NS(=O)(=O)c2ccc(N)cc2)c(NCc2ccccc2)n1` [Compound 1064, N-(4-aminophenyl)sulfonyl-2-(benzylamino)-6-tert-butyl-pyridine-3-carboxamide], the EC30 entry is “+++ (“+++” means <3 uM)”.
